Measurements as given in US4072743A, “N^2 -arylsulfonyl-L-argininamides and the pharmaceutically acceptable salts thereof” (Mitsubishi Chemical Industries Limited, priority 1974, dated 1978).

Key:
mice = test: Acute toxicity (LD50) by intraperitoneal administration in mice; type: in vivo; conditions: mice (male, 20 g)
Text: Representative LD50 values, for example, for N^2 -(5,6,7,8-tetrahydro-1-naphthylsulfonyl)-N-(2-methoxyethyl)glycine, N^2 -(7-methyl-2-naphthylsulfonyl)-N-butylglycine and N^2 -(6,7-dimethyl-1-naphthylsulfonyl)-N-(2-methoxyethyl)glycine are above 1,500 milligrams per kilogram, respectively.

thrombin = biological target: T1, thrombin (Bos taurus, UniProt P00735); test: Fibrinogen coagulation time (thrombin-induced clotting of bovine fibrinogen); type: biochemical; conditions: thrombin 5 units/ml, borate saline buffer pH 7.4, 25° C, normal coagulation time 50-55 seconds prolonged to 100-110 seconds
T1 construct: purchased Mochida Pharmaceutical Co., Ltd
Description: The measurement of the fibrinogen coagulation time was conducted as follows:
Immediately after mixing, the reaction mixture was transferred from the ice bath to a bath maintained at 25° C. Coagulation times were taken as the period between the time of transference to the 25° C bath and the time of the first appearance of fibrin threads.
The term "concentration required to prolong the coagulation time by a factor of two" is the concentration of an active ingredient required to prolong the normal coagulation time 50-55 seconds to 100-110 seconds.

Concentration required to prolong the coagulation time by a factor of two (thrombin) [µM] | SMILES | acute toxicity value (LD50) (mice)
 | CCCCNC(=O)[C@H](CCCNC(=N)N)NS(=O)(=O)c1cccc2c(N(C)C)cccc12 [N^2 -dansyl-N-butyl-L-argininamide, reference compound] | 75 milligrams per kilogram
4 | CCCCN(CC(=O)O)C(=O)[C@H](CCCNC(=N)N)NS(=O)(=O)c1cccc2c(N(C)C)cccc12 [Sample 24, N^2-(5-dimethylamino-1-naphthylsulfonyl)-L-arginyl-N-butylglycine] | 
20 | CCCCN(CC(=O)O)C(=O)[C@H](CCCNC(=N)N)NS(=O)(=O)c1cccc2c1CCCC2 [Sample 1, N^2-(5,6,7,8-tetrahydro-1-naphthylsulfonyl)-L-arginyl-N-butylglycine] | 
 | CCCCN(C)C(=O)[C@H](CCCNC(=N)N)NS(=O)(=O)c1cccc2c(N(C)C)cccc12 [N^2 -dansyl-N-methyl-N-butyl-L-argininamide, reference compound] | 70 milligrams per kilogram
14 | Cc1ccc2ccc(S(=O)(=O)N[C@@H](CCCNC(=N)N)C(=O)N(CC(=O)O)CC3CCCCC3)cc2c1 [Sample 17, N^2-(7-methyl-2-naphthylsulfonyl)-L-arginyl-N-cyclohexylmethylglycine] | 
20 | COCCN(CC(=O)O)C(=O)[C@H](CCCNC(=N)N)NS(=O)(=O)c1cccc2ccc(C)cc12 [Sample 22, N^2-(7-methyl-1-naphthylsulfonyl)-L-arginyl-N-(2-methoxyethyl)glycine] | 
30 | N=C(N)NCCC[C@H](NS(=O)(=O)c1ccc2c(c1)CCCC2)C(=O)N(CC(=O)O)Cc1ccccc1 [Sample 4, N^2-(5,6,7,8-tetrahydro-2-naphthylsulfonyl)-L-arginyl-N-benzylglycine] | 
0.2 | COCCN(CC(=O)O)C(=O)[C@H](CCCNC(=N)N)NS(=O)(=O)c1ccc2ccc(C)cc2c1 [Sample 15, N^2-(7-methyl-2-naphthylsulfonyl)-L-arginyl-N-(2-methoxyethyl)glycine] | 

SMILES | Concentration required to prolong the coagulation time by a factor of two (thrombin) [µM] | acute toxicity value (LD50) (mice)
COCCN(CC(=O)O)C(=O)[C@H](CCCNC(=N)N)NS(=O)(=O)c1cccc2cc(C)c(C)cc12 [Sample 23, N^2-(6,7-dimethyl-1-naphthylsulfonyl)-L-arginyl-N-(2-methoxyethyl)glycine] | 10 | above 1,500 milligrams per kilogram
COCCN(CC(=O)O)C(=O)[C@H](CCCNC(=N)N)NS(=O)(=O)c1cccc2c1CCCC2 [Sample 3, N^2-(5,6,7,8-tetrahydro-1-naphthylsulfonyl)-L-arginyl-N-(2-methoxyethyl)glycine] | 10 | above 1,500 milligrams per kilogram
CCCCN(CC(=O)O)C(=O)[C@H](CCCNC(=N)N)NS(=O)(=O)c1ccc2ccc(C)cc2c1 [Sample 14, N^2-(7-methyl-2-naphthylsulfonyl)-L-arginyl-N-butylglycine] | 0.3 | above 1,500 milligrams per kilogram
